Measured values from patent publication US20060263761A1, “Methods and compositions for beryllium-induced Disease” (priority 2005, published 2006).

Columns and labels:
Assay type in all cases: cell-based, human
[1] = tested on: PBMCs (IL-2-producing cells); experiment: IL-2 ELISPOT assay on PBMCs after BeSO4 exposure
Protocol: (§1) In one exemplary method, ELISPOT assays were performed using plates (ImmunoSpot M200, BD Biosciences Pharmingen) that were coated with, IFN-γ or IL-2 capture mAb (BD Biosciences Pharmingen) overnight and blocked with Blocking Solution containing RPMI 1640 supplemented with 10% heat-inactivated fetal bovine serum (Tissue Culture Biologicals, Tulare Calif.), 20 mM HEPES, 1 mM sodium pyruvate, 100 U/ml penicillin, 100 μg/ml streptomycin, and 2 mM L-glutamine (e.g. all from Life Technologies, Gaithersburg Md.) for 2 h at room temperature. Freshly isolated PBMCs (5×10^5 cells/well) were added to wells and incubated overnight at 37° C. in a humidified 5% CO2 atmosphere with medium, PHA, or BeSO4. ELISpot assays were performed in triplicate. The wells were washed, and IFN-γ or IL-2 detection mAbs (BD Biosciences Pharmingen) were added, and the proteins were visualized by successive additions of avidin-horseradish peroxidase and 3-amino-9-ethylcarbazole (AEC) substrate reagent (BD Biosciences Pharmingen). The ELISpot plates were analyzed using a for example a CTL Immunospot Analyzer (Cellular Technology Ltd., Cleveland, Ohio), and results are reported as mean±SD spot-forming units (SFU) per well minus background SFU.

PBMCs = experiment: Lymphocyte proliferation assay ([3H]thymidine, BeLPT)
Protocol: In one exemplary method, proliferation assays were performed using PBMCs (2.5×10^5 cells/well) cultured for 4-6 days in complete culture media containing RPMI 1640 supplemented with 10% heat-inactivated human serum (Gemini Bio-Products, Woodland Calif.) with the following stimulants: medium, 2.5 μg/ml phytohemagglutinin (PHA), 1×10^−4 M or 1×10^−5 M BeSO4 (example of one beryllium composition). The wells were pulsed with 1 μCi of [^3H] thymidine for 18 hours, and incorporation of radioactivity was determined by β-emission spectroscopy. Proliferation assays were performed in quadruplicate. The data are presented as stimulation index (SI) with a positive response defined as […]. Any other means known in the art for assessing proliferation of cells may be used.
In another exemplary method, PBMCs from healthy control, BeS, and CBD subjects described above were examined for beryllium-induced proliferation at the same time as the ELISPOT assays were performed. […] The median SI for PBMCs from BeS and CBD patients exposed to 1×10^−4 M BeSO4 was 2.8 (range, 0.5-42) and 3.5 (0.6-85) (P=0.49), respectively. The findings were similar when expressed as ΔCPM, with the median ΔCPM from BeS and CBD patients exposed to 1×10^−4 M BeSO4 being 917 (range, 0-36,355) and 1514 (range, 0-20,884), respectively (P=0.85). […] In one exemplary method, ELISPOT analysis for IFN-γ was able to detect the presence of beryllium-specific T cells in blood. […] In 6 BeS and 7 CBD subjects, the ELISPOT assay detected IFN-γ- and/or IL-2-secreting cells in response to beryllium exposure in culture while no beryllium-induced proliferation was detected at the time of the study. […] For example, in CBD patients, the median number of beryllium-induced, IFN-γ-expressing cells was 83 SFU (range, 0-645) in subjects with and 48 SFU (range, 10-112; P=0.3) in subjects without beryllium-induced proliferation. Beryllium-induced proliferation occurred in the absence of detectable cytokine secretion in only 2 CBD patients, while both ELISPOT analysis and proliferation assay were negative in 2 BeS and 3 CBD patients.

[2] = tested on: PBMCs (IFN-γ-producing cells); experiment: IFN-γ ELISPOT assay on PBMCs after BeSO4 exposure; settings: for ratio of IFN-γ- to IL-2-secreting cells (median): ELISPOT; for subjects demonstrating beryllium-induced IFN-γ production: threshold >1.4 SFU
Protocol: as §1
In one exemplary method ELISPOT assays were performed on fresh PBMCs from 12 healthy control, 18 BeS and 33 CBD subjects (Table 1).

CD4+ T cells = experiment: Intracellular cytokine staining (IFN-γ, IL-2) by flow cytometry
Protocol: . Cells were stained with mAbs directed against CD4 and CD8 (BD Biosciences Pharmingen) followed by fixation, permeabilization, and staining with mAbs directed against IFN-γ and/or IL-2 (Caltag, Burlingame, Calif.). The lymphocyte population was identified using forward and 90° light scatter patterns, and fluorescence intensity was analyzed using a FACScaliber cytometer (Becton Dickinson) as previously described but any means known in the art may be used to identify this population.
For example, the ratio of IFN-γ- to IL-2-secreting cells determined by ELISPOT analysis was 2.7 (median; range, 0.5-167) for CBD patients (n=33) and 1.8 (median; range, 0.5-6.9) for BeS patients (n=18) (P=0.07). To further address this issue, intracellular cytokine staining was performed on blood from 11 of the 33 CBD subjects who had large enough populations (>0.04%) of circulating beryllium-specific CD4+ T cells to allow for evaluation of Th1-type cytokine expression after beryllium exposure in culture. […] IFN-γ and IL-2 expression in CD4− T cells was equal to background levels. In the peripheral blood, the beryllium-specific CD4+ T cells appeared equally divided into two groups: T cells capable of expressing both IFN-γ and IL 2 and another expressing only IFN-γ (FIG. 4B). Similar to T cells in the lung (12), almost no cells were detected that produced IL-2 in the absence of IFN-γ expression. In these eleven CBD patients, the median percentage of IFN-γ-expressing CD4+ T cells was 0.29% (range, 0.1%-1.1%) compared to 0.07% for IL-2 (0%-0.49%; P=0.007) (FIG. 4C).

[3] = representative CBD subject, FIG. 4A, following beryllium exposure

Compound: O=S(=O)([O-])[O-].[Be+2] [BeSO4, Beryllium sulfate]
- median number of IL-2-producing cells ([1]; BeS subjects): 2.8 SFU
- median number of IL-2-producing cells ([1]; CBD patients): 16 SFU/5×10^5 cells
- median number of IL-2-producing cells ([1]; normal control subjects): 0 SFU
- patients with a positive proliferative response (PBMCs; BeS patients, 10 of 18, 1×10^−4 M BeSO4): 55%
- median SI (stimulation index) (PBMCs; BeS patients, 1×10^−4 M BeSO4): 2.8
- median ΔCPM (PBMCs; BeS patients, 1×10^−4 M BeSO4): 917
- subjects with a positive beryllium-induced proliferative response (BeLPT) (PBMCs; CBD and BeS subjects, 33 of 51): 65%
- patients with a positive proliferative response (PBMCs; CBD patients, 23 of 33, 1×10^−4 M BeSO4): 70%
- median SI (stimulation index) (PBMCs; CBD patients, 1×10^−4 M BeSO4): 3.5
- median ΔCPM (PBMCs; CBD patients, 1×10^−4 M BeSO4): 1514
- median SI (stimulation index) (PBMCs; control subjects, 1×10^−4 M BeSO4): 0.5
- median SI (stimulation index) (PBMCs; control subjects, 1×10^−5 M BeSO4): 0.7
- ratio of IFN-γ- to IL-2-secreting cells (median) ([2]; BeS patients (n=18)): 1.8
- median number of IFN-γ producing cells in blood ([2]; BeS subjects (n=18), 1×10^−4 M BeSO4): 6.3 SFU
- subjects demonstrating beryllium-induced IFN-γ production ([2]; BeS subjects, 13 of 18, 1×10^−4 M BeSO4): 72%
- patients with a positive ELISPOT assay ([2]; CBD and BeS subjects, 41 of 51): 80%
- median number of IFN-γ producing cells in blood ([2]; CBD patients (n=33), 1×10^−4 M BeSO4): 52 SFU
- ratio of IFN-γ- to IL-2-secreting cells (median) ([2]; CBD patients (n=33)): 2.7
- median number of beryllium-induced, IFN-γ-expressing cells ([2]; CBD patients with beryllium-induced proliferation): 83 SFU
- median number of beryllium-induced, IFN-γ-expressing cells ([2]; CBD patients without beryllium-induced proliferation): 48 SFU
- subjects demonstrating beryllium-induced IFN-γ production ([2]; CBD subjects, 28 of 33, 1×10^−4 M BeSO4): 85%
- IFN-γ SFU (mean±SD) of the one healthy control with a positive response ([2]; healthy control subject, 1×10^−4 M BeSO4): 2.0±2.1 SFU per 5×10^5 cells
- median number of IFN-γ producing cells in blood ([2]; normal control subjects (n=12), 1×10^−4 M BeSO4): 0.4 SFU
- median number of IFN-γ producing cells in blood ([2]; treated CBD subjects, 1×10^−4 M BeSO4): 117
- median number of IFN-γ producing cells in blood ([2]; untreated CBD subjects, 1×10^−4 M BeSO4): 34
- median percentage of IFN-γ-expressing CD4+ T cells (CD4+ T cells; eleven CBD patients): 0.29%
- median percentage of IL-2-expressing CD4+ T cells (CD4+ T cells; eleven CBD patients): 0.07%
- CD4+ T cells expressing IFN-γ (CD4+ T cells; [3]): 1.1%
- CD4+ T cells expressing IL-2 (CD4+ T cells; [3]): 0.5%
